In PubChem BioAssay AID1845211 (Molecular Pharmacology Branch, DTP, NCI, 2023):

Tested on: NCI-H322M multicellular tumor spheroids, viability (% test/control)
Assay: Anticancer human tumor NCI-H322M cell line growth inhibition;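 on viability, T/C: spheroids exposed to compound for seven days before readout; 100% = DMSO vehicle control wells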
Conditions: for IC50: curve of first compound; for viability, T/C: stronger effect = lower value
Excerpt: Multicellular complex tumor spheroid response to DNA repair inhibitors in combination with DNA-damaging drugs
This study explores the anticancer activities of DNA-damaging drugs and inhibitors of DNA damage repair, both as single agents and in combinations. Complex tumor spheroids comprised of malignant cells, endothelial cells and mesenchymal stem cells served as an in vitro model for human solid tumors. This model system incorporates physiologically relevant features and patient-derived or established malignant cell lines with clinically relevant genetic alterations from many tumor types. Twenty-six patient-derived or established malignant cell lines were evaluated representing sarcoma, melanoma, small cell lung cancer (SCLC), non-small cell lung cancer (NSCLC), as well as bladder, ovarian and pancreatic cancers. The concentration ranges selected for each drug and investigational agent were based upon clinically achievable concentrations if the clinical Cmax of the agent was known.
Compounds. The drugs and compounds olaparib (NSC753686), talazoparib (NSC767125), berzosertib (NSC777718), elimusertib (NSC800525), nedisertib (NSC802822), VX-984 (NSC792969), AZD-1390 (NSC803789), temozolomide (NSC362856), topotecan (NSC609699), trabectedin (NSC813783), staurosporine (NSC755774), and gemcitabine (NSC613327) were obtained from the National Cancer Institute (NCI) Developmental Therapeutics Program Chemical Repository. The FDA-approved anticancer drug set is available from the Developmental Therapeutics Program at https://dtp.cancer.gov/organization/dscb/obtaining/available_plates.htm. […] The stock solutions were prepared in dimethyl sulfoxide (DMSO, Sigma-Aldrich, St. Louis, MO, cat. D2650) at 400-fold the tested concentration and stored at -70 degrees C. Prior to their use, the stock solutions were diluted in fresh medium and the final DMSO concentration in the assay was 0.25% (v/v). All drugs and investigational agents were tested over a range starting from a high concentration at or near the clinical Cmax and decreasing in half-log increments. If the clinical Cmax for an agent had not been determined, the highest concentration tested was 10 microM.
Cell Lines. The patient-derived cancer cell (PDC) lines: 156681-154-R-J1-PDC, 283228-195-R-J1-PDC, 287954-098-R-J1-PDC, 292921-168-R-J2-PDC, 349418-098-R-PDC, 425362-245-T-J1-PDC, 556581-035-R-J1-PDC, and BL0293-F563-PDC were received from the NCI Patient-Derived Models Repository (PDMR, https://pdmr.cancer.gov). The established cell lines HS-SY-2 (RRID:CVCL_8719), MPNST, and SYO-1 (RRID:CVCL_7146) were obtained from the Sloan Kettering Institute. The alveolar soft parts sarcoma cell line ASPS-1 (RRID:CVCL_S738) was established at the NCI and grown from internal seed stocks. The following established cell lines were purchased from the American Type Culture Collection (ATCC, Manassas, VA): G-401 (ATCC, cat. CRL-1441, RRID:CVCL_0270), SW982 (ATCC, cat. HTB-93, RRID:CVCL_1734), VA-ES-BJ (ATCC, cat. CRL-2138, RRID:CVCL_1785), NCI-H719 (ATCC, cat. CRL-5837, RRID:CVCL_1582), NCI-H196 (ATCC, cat. CRL-5823, RRID:CVCL_1509), NCI-H841 (ATCC, cat. CRL-5845, RRID:CVCL_1595), NCI-H1618 (ATCC, cat. CRL-5879, RRID:CVCL_1480), NCI-H1876 (ATCC, cat. CRL-5902, RRID:CVCL_1503), DMS 114 (ATCC, cat. CRL-2066; RRID:CVCL_1174), NCI-H211 (ATCC, cat. CRL-5824; RRID:CVCL_1529), and SW 1271 (ATCC, cat. CRL-2177, RRID:CVCL_1716). The small cell lung cancer cell line COR-L88 was purchased from Sigma-Aldrich (cat. 92031917-1VL, RRID:CVCL_1141). The non-small cell lung cancer cell lines NCI-H226 (RRID:CVCL_1544) and NCI-H322M (RRID:CVCL_1557) were established at the NCI and grown from internal seed stocks. Pooled donor human umbilical vein endothelial cells (HUVEC, Lonza, cat. CC-2519) and human mesenchymal stem cells (hMSC, Lonza, cat. PT-2501) were purchased from Lonza (Walkersville, MD).
Cell Culture. All cells were maintained in an incubator at 37 degrees C and 5% CO2 with 95% humidity. […]

[1] = second compound 0.003 µM, first compound 0.00949 µM
[2] = second compound 0.003 µM, first compound 0.03 µM
[3] = second compound 0.003 µM, first compound 0.0949 µM
[4] = second compound 0.003 µM, first compound 0.3 µM
[5] = second compound 0.003 µM, first compound 0.949 µM
[6] = second compound 0.003 µM, first compound 3 µM
[7] = second compound 0.00949 µM, first compound 0.00949 µM
[8] = second compound 0.00949 µM, first compound 0.03 µM
[9] = second compound 0.00949 µM, first compound 0.0949 µM
[10] = second compound 0.00949 µM, first compound 0.3 µM
[11] = second compound 0.00949 µM, first compound 0.949 µM
[12] = second compound 0.00949 µM, first compound 3 µM
[13] = second compound 0.03 µM, first compound 0.00949 µM
[14] = second compound 0.03 µM, first compound 0.03 µM
[15] = second compound 0.03 µM, first compound 0.0949 µM
[16] = second compound 0.03 µM, first compound 0.3 µM
[17] = second compound 0.03 µM, first compound 0.949 µM
[18] = second compound 0.03 µM, first compound 3 µM
[19] = second compound 0.0949 µM, first compound 0.00949 µM
[20] = second compound 0.0949 µM, first compound 0.03 µM
[21] = second compound 0.0949 µM, first compound 0.0949 µM
[22] = second compound 0.0949 µM, first compound 0.3 µM
[23] = second compound 0.0949 µM, first compound 0.949 µM
[24] = second compound 0.0949 µM, first compound 3 µM
[25] = second compound 0.3 µM, first compound 0.00949 µM
[26] = second compound 0.3 µM, first compound 0.03 µM
[27] = second compound 0.3 µM, first compound 0.0949 µM
[28] = second compound 0.3 µM, first compound 0.3 µM
[29] = second compound 0.3 µM, first compound 0.949 µM
[30] = second compound 0.3 µM, first compound 3 µM

Compound	IC50 (second compound 0.003 µM)	IC50 (second compound 0.00949 µM)	IC50 (second compound 0.03 µM)	IC50 (second compound 0.0949 µM)	IC50 (second compound 0.3 µM)	viability, T/C [3]	viability, T/C [4]	viability, T/C [5]	viability, T/C [6]	viability, T/C [9]	viability, T/C [10]	viability, T/C [11]	viability, T/C [12]	viability, T/C [15]	viability, T/C [16]	viability, T/C [17]	viability, T/C [18]	viability, T/C [21]	viability, T/C [22]	viability, T/C [23]	other results
CNCc1ccc(-c2cc(-c3nc(-c4ccc(S(=O)(=O)C(C)C)cc4)cnc3N)on2)cc1 + CC[C@@]1(O)C(=O)OCc2c1cc1n(c2=O)Cc2cc3c(CN(C)C)c(O)ccc3nc2-1	> 3 µM	> 3 µM	> 3 µM	> 3 µM	1.47 µM	96%	79.7%	78%	85.6%	83.7%	75.4%	81.3%	85.7%	85.5%	69.1%	86%	86.6%	61.3%	74.2%	59.7%	viability, T/C [1]: 79.2%; viability, T/C [2]: 93.3%; viability, T/C [7]: 95.3%; viability, T/C [8]: 87.9%; viability, T/C [13]: 88.4%; viability, T/C [14]: 74.7%; viability, T/C [19]: 69.3%; viability, T/C [20]: 66%; viability, T/C [24]: 69.1%; viability, T/C [25]: 55.2%; viability, T/C [26]: 56.4%; viability, T/C [27]: 59.1%; viability, T/C [28]: 54.7%; viability, T/C [29]: 51.7%; viability, T/C [30]: 46.2%
Cc1sc2c(c1C)C(c1ccc(Cl)cc1)=NC(CC(=O)Nc1ccc(O)cc1)c1nnc(C)n1-2 (stereo not given) + CC[C@@]1(O)C(=O)OCc2c1cc1n(c2=O)Cc2cc3c(CN(C)C)c(O)ccc3nc2-1	> 3 µM	> 3 µM	> 3 µM	> 3 µM	> 3 µM	132%	134%	95.3%	76.2%	140%	118%	79%	77.2%	126%	103%	82.2%	73.7%	112%	89.2%	79.8%	viability, T/C [1]: 105%; viability, T/C [2]: 139%; viability, T/C [7]: 106%; viability, T/C [8]: 112%; viability, T/C [13]: 107%; viability, T/C [14]: 127%; viability, T/C [19]: 90.7%; viability, T/C [20]: 99.1%; viability, T/C [24]: 64.4%; viability, T/C [25]: 74.5%; viability, T/C [26]: 73.5%; viability, T/C [27]: 90.2%; viability, T/C [28]: 80.5%; viability, T/C [29]: 71%; viability, T/C [30]: 58.1%
Cn1ncnc1[C@H]1c2n[nH]c(=O)c3cc(F)cc(c23)N[C@@H]1c1ccc(F)cc1 + CC[C@@]1(O)C(=O)OCc2c1cc1n(c2=O)Cc2cc3c(CN(C)C)c(O)ccc3nc2-1	> 3 µM	> 3 µM	> 3 µM	1.63 µM	0.00964 µM	89.6%	71.9%	79.6%	68.6%	80.6%	73.7%	69%	70.7%	78.4%	70.2%	63.7%	65%	59.4%	51.5%	51.2%	viability, T/C [1]: 84.3%; viability, T/C [2]: 87.1%; viability, T/C [7]: 85.1%; viability, T/C [8]: 78.2%; viability, T/C [13]: 76.6%; viability, T/C [14]: 72.5%; viability, T/C [19]: 67.4%; viability, T/C [20]: 56.3%; viability, T/C [24]: 50.2%; viability, T/C [25]: 50.8%; viability, T/C [26]: 46.2%; viability, T/C [27]: 49.2%; viability, T/C [28]: 49.9%; viability, T/C [29]: 47%; viability, T/C [30]: 44.1%
O=C(c1cc(Cc2n[nH]c(=O)c3ccccc23)ccc1F)N1CCN(C(=O)C2CC2)CC1 + CC[C@@]1(O)C(=O)OCc2c1cc1n(c2=O)Cc2cc3c(CN(C)C)c(O)ccc3nc2-1	> 30 µM	> 30 µM	> 30 µM	> 30 µM	< 0.0949 µM	77.7%	78.8%	79.2%	87.3%	85.7%	73%	71.6%	77%	67.5%	69.7%	78.4%	78.5%	56.4%	57.6%	60.5%	viability, T/C (second compound 0.003 µM, first compound 9.49 µM): 95.8%; viability, T/C (second compound 0.003 µM, first compound 30 µM): 78.2%; viability, T/C (second compound 0.00949 µM, first compound 9.49 µM): 66.9%; viability, T/C (second compound 0.00949 µM, first compound 30 µM): 83.5%; viability, T/C (second compound 0.03 µM, first compound 9.49 µM): 78.5%; viability, T/C (second compound 0.03 µM, first compound 30 µM): 75.4%; viability, T/C [24]: 51.4%; viability, T/C (second compound 0.0949 µM, first compound 9.49 µM): 50.5%; viability, T/C (second compound 0.0949 µM, first compound 30 µM): 61.1%; viability, T/C [27]: 42.5%; viability, T/C [28]: 48.8%; viability, T/C [29]: 45.3%; viability, T/C [30]: 49.6%; viability, T/C (second compound 0.3 µM, first compound 9.49 µM): 55.1%; viability, T/C (second compound 0.3 µM, first compound 30 µM): 46.5%
